Measurements: publication PMC9106635, “Stimulation of the atypical chemokine receptor 3 (ACKR3) by a small-molecule agonist attenuates fibrosis in a preclinical liver but not lung injury model” (Cellular and Molecular Life Sciences: CMLS, 2022)

Legend:
[1] = Mouse plasma pharmacokinetics after subcutaneous administration; assay type: in vivo; details: 30 mg/kg subcutaneous
Experimental: Pharmacokinetic analysis of plasma samples was performed at GVK BIO Sciences Pvt. Ltd. (Hyderabad, India). The pharmacokinetic properties of compound 18a were determined by subcutaneous administration in male C57BL/6 mice. A 30 mg/kg dose was formulated as a solution in 23% hydroxypropyl-beta-cyclodextrin (HPBCD; w/v) in water. The dose volume was 3 mL/kg. Serial blood samples were collected at 0.5, 1, 2, 4, 6, 8 and 24 h post dosing (n = 3). Plasma concentration of compound 18a was determined by a LC–MS/MS method. Chromatography was performed on a reverse phase column (Kinetex EVO, C18, 50 × 4.6 mm, 5 µ) at a flow rate of 1 mL/minute, using a gradient-elution method. Mobile Phase A was a 10 mM ammonium acetate solution with 0.1% formic acid in water, whereas mobile phase B was a mixture of acetonitrile and methanol (50:50). The gradient started at 5% B ramped up to 95% B over 1 min, held at 95% B for 1.2 min, and then ramped down to 5% B over 0.1 min, and held at 5% B for 1.2 min. The mass spectrometer was operated in positive-ionization mode and Telmisartan was used as internal standard. Analyst software was used for the data acquisition and chromatographic-peak integration. The Cmax, Tmax, AUC and half-life value (t1/2) were determined using standard non-compartmental pharmacokinetic methods. The concentration of compound 18a in liver and lung tissue was determined by LC–MS/MS at Eurofins (Vergeze, France). Tissues harvested at the endpoint of the efficacy study (day 28 for liver, day 21 for lung), 2 h post the last compound 18a dose, were processed. Around 250 mg of the lateral right liver lobe (n = 3) and ~ 120 mg of the caudal right lung lobe (n = 4) were homogenized in water and precipitated in acetonitrile containing Irbesartan as internal standard. Further analysis was performed via a similar method as described above. Data are expressed as mean ± sem.
Pharmacokinetic parameters were calculated from plasma concentration-time data in male C57BL/6 mice (n=3). Cmax is reported as the mean ± SD.

[2] = system: mouse CXCL12 plasma levels; assay: Mouse CXCL12 plasma determination (Bio-Plex); assay type: in vivo
Experimental: CXCL12 plasma levels were determined using Bio-Plex Pro Mouse Chemokine SDF-1a/CXCL12 (Bio-Rad) according to the manufacturer’s protocol. Prior to the assay mouse plasma samples were centrifuged for 15 min at 1000×g at 4 °C to remove any particulates. A four-fold dilution series of mouse CXCL12, blank samples and 1:5 diluted plasma samples were prepared. A 1:1 mixture of magnetic beads (50 µL/well) and sample (50 µL/well) was added to the 96-well assay plate, which was then sealed and incubated (30 min at RT) on a plate shaker at 850 rpm protected from light. After washing three times with wash buffer 25 µL/well detection antibody was added and the plate was again incubated as described above. The plate was again washed three times (100 µL/well wash buffer) followed by the addition of streptavidin-PE (50 µL/well). The plate was sealed and incubated (10 min at RT) at 850 rpm protected from light. Finally, the plate was again washed three times and the magnetic beads were resuspended in fresh assay buffer (152 µL/well). The plate was sealed and shaken for an additional 30 s before being analyzed with the Bioplex 200 System. Data were analyzed with the Bio-Plex Manager Software.

[3] = system: isoproterenol-induced cardiac fibrosis in mice; set-up: method as in PMID 29627981; details: isoproterenol-induced cardiac injury; cited from earlier work
[4] = mouse, sc, male C57BL/6 mice, plasma

CCc1ccn2ccnc2c1N1CCCN(C(CC(N)=O)C2CCN(C(=O)C3CC4CCC3O4)CC2)CC1 (stereo not drawn) [compound 18a]
time after administration for which plasma levels exceeded the target value (5.2 ng/mL) ([1]; below target at 24 h): up to 8 h | AUC [1, 4]: 6700 ng·h/mL | Tmax [1, 4]: 15 min | half-life [1, 4]: 312 min | Cmax ([1]; mouse, sc, male C57BL/6 mice, plasma, mean ± SD, n=3): 6120 ng/mL | increase of plasma CXCL12-levels ([2]; liver fibrosis model, day 7, 15 mg/kg/dose SC BID): ~ threefold | plasma CXCL12 levels ([2]; liver fibrosis model, day 28, 15 mg/kg/dose SC BID): led to increased CXCL12 levels | plasma CXCL12 levels ([2]; lung fibrosis model, day 21, 15 mg/kg/dose SC BID, vs vehicle (23% HPBCD)): increased mouse CXCL12 plasma levels | cardiac fibrosis [3]: protect mice from cardiac fibrosis
